# Measured values reported in ChEMBL document CHEMBL3885881, “DrugMatrix”.
# Organism: Rattus norvegicus
# Type: toxicity, organism-based, Sprague-Dawley
# Conditions: in vivo, po, 24 h, route oral GAVAGE, time 1 day, vehicle 100 % WATER; for ABSOLUTE BASOPHIL / ABSOLUTE EOSINOPHIL / ABSOLUTE LYMPHOCYTE / ABSOLUTE MONOCYTE / BASOPHIL / EOSINOPHIL / ERYTHROCYTE COUNT / HEMATOCRIT / HEMOGLOBIN / LEUKOCYTE COUNT / LYMPHOCYTE / MEAN CORPUSCULAR HEMOGLOBIN / MEAN CORPUSCULAR VOLUME / MONOCYTE / NEUTROPHIL / PLATELET COUNT: tissue Blood; for ALANINE AMINOTRANSFERASE / ALBUMIN / ALKALINE PHOSPHATASE / ASPARTATE AMINOTRANSFERASE / BLOOD UREA NITROGEN / CARBON DIOXIDE / CHLORIDE / CHOLESTEROL / CREATINE PHOSPHOKINASE / CREATININE / GLUCOSE / LACTATE DEHYDROGENASE / LIPASE / PHOSPHORUS / POTASSIUM / SODIUM / TOTAL BILIRUBIN / TOTAL PROTEIN / URIC ACID: tissue Plasma
# [1] = 0 mg/kg, vehicle control, dose level Control
# Description: DrugMatrix - Regimen: Single
structure (smiles),measurement,setting,value
CCOC(=O)N1CCC(=C2c3ccc(Cl)cc3CCc3cccnc32)CC1 [LORATADINE],ABSOLUTE BASOPHIL,[1],63.3 cells/µL
same,ABSOLUTE EOSINOPHIL,[1],66.7 cells/µL
same,ABSOLUTE LYMPHOCYTE,[1],8010 cells/µL
same,ABSOLUTE MONOCYTE,[1],240 cells/µL
same,BASOPHIL,[1],0.6%
same,EOSINOPHIL,[1],0.6%
same,ERYTHROCYTE COUNT,[1],6.25 x10E6/uL
same,HEMATOCRIT,[1],40.47%
same,HEMOGLOBIN,[1],12.83 G/DL
same,LEUKOCYTE COUNT,[1],10.19 x10E3/uL
same,LYMPHOCYTE,[1],78.7%
same,MEAN CORPUSCULAR HEMOGLOBIN,[1],20.53 pg
same,MEAN CORPUSCULAR VOLUME,[1],64.67 fL
same,MONOCYTE,[1],2.5%
same,NEUTROPHIL,[1],17.07%
same,PLATELET COUNT,[1],1297 x10E3/uL
same,ALANINE AMINOTRANSFERASE,[1],32.67 u/L
same,ALBUMIN,[1],3.9 G/DL
same,ALKALINE PHOSPHATASE,[1],374 u/L
same,ASPARTATE AMINOTRANSFERASE,[1],64.33 u/L
same,BLOOD UREA NITROGEN,[1],14 mg/dL
same,CARBON DIOXIDE,[1],45.67 mmol/L
same,CHLORIDE,[1],103 MEQ/L
same,CHOLESTEROL,[1],82.67 mg/dL
same,CREATINE PHOSPHOKINASE,[1],216.33 u/L
same,CREATININE,[1],0.17 mg/dL
same,GLUCOSE,[1],161.33 mg/dL
same,LACTATE DEHYDROGENASE,[1],103.67 u/L
same,LIPASE,[1],8.67 u/L
same,PHOSPHORUS,[1],11 mg/dL
same,POTASSIUM,[1],6.83 MEQ/L
same,SODIUM,[1],144.67 MEQ/L
same,TOTAL BILIRUBIN,[1],0.27 mg/dL
same,TOTAL PROTEIN,[1],6.27 G/DL
same,URIC ACID,[1],0.67 mg/dL
same,ABSOLUTE BASOPHIL,"2000 mg/kg, dose level High",63.3 cells/µL
same,ABSOLUTE EOSINOPHIL,"2000 mg/kg, dose level High",56.7 cells/µL
same,ABSOLUTE LYMPHOCYTE,"2000 mg/kg, dose level High",5990 cells/µL
same,ABSOLUTE MONOCYTE,"2000 mg/kg, dose level High",100 cells/µL
same,BASOPHIL,"2000 mg/kg, dose level High",0.97%
same,EOSINOPHIL,"2000 mg/kg, dose level High",0.77%
same,ERYTHROCYTE COUNT,"2000 mg/kg, dose level High",7.26 x10E6/uL
same,HEMATOCRIT,"2000 mg/kg, dose level High",47.47%
same,HEMOGLOBIN,"2000 mg/kg, dose level High",14.97 G/DL
same,LEUKOCYTE COUNT,"2000 mg/kg, dose level High",6.8 x10E3/uL
same,LYMPHOCYTE,"2000 mg/kg, dose level High",87.87%
same,MEAN CORPUSCULAR HEMOGLOBIN,"2000 mg/kg, dose level High",20.6 pg
same,MEAN CORPUSCULAR VOLUME,"2000 mg/kg, dose level High",65.27 fL
same,MONOCYTE,"2000 mg/kg, dose level High",1.5%
same,NEUTROPHIL,"2000 mg/kg, dose level High",8.47%
same,PLATELET COUNT,"2000 mg/kg, dose level High",1455 x10E3/uL
same,ALANINE AMINOTRANSFERASE,"2000 mg/kg, dose level High",19.67 u/L
same,ALBUMIN,"2000 mg/kg, dose level High",4.17 G/DL
same,ALKALINE PHOSPHATASE,"2000 mg/kg, dose level High",348 u/L
same,ASPARTATE AMINOTRANSFERASE,"2000 mg/kg, dose level High",59.33 u/L
same,BLOOD UREA NITROGEN,"2000 mg/kg, dose level High",11.33 mg/dL
same,CARBON DIOXIDE,"2000 mg/kg, dose level High",39.67 mmol/L
same,CHLORIDE,"2000 mg/kg, dose level High",104 MEQ/L
same,CHOLESTEROL,"2000 mg/kg, dose level High",66.33 mg/dL
same,CREATINE PHOSPHOKINASE,"2000 mg/kg, dose level High",336 u/L
same,CREATININE,"2000 mg/kg, dose level High",0.3 mg/dL
same,GLUCOSE,"2000 mg/kg, dose level High",156 mg/dL
same,LACTATE DEHYDROGENASE,"2000 mg/kg, dose level High",112.67 u/L
same,LIPASE,"2000 mg/kg, dose level High",8.33 u/L
same,PHOSPHORUS,"2000 mg/kg, dose level High",12.4 mg/dL
same,POTASSIUM,"2000 mg/kg, dose level High",7.03 MEQ/L
same,SODIUM,"2000 mg/kg, dose level High",145.67 MEQ/L
same,TOTAL BILIRUBIN,"2000 mg/kg, dose level High",0.3 mg/dL
same,TOTAL PROTEIN,"2000 mg/kg, dose level High",6.8 G/DL
same,URIC ACID,"2000 mg/kg, dose level High",0.8 mg/dL
